Data reported in patent publication US20230286934A1, “Use of Multi-Kinase Inhibitors to Treat RNA Virus Infections” (priority 2020, published 2023).
Read-outs that look alike come from different tables or passages of the source.

Tests used:
[1] = tested on: SARS-CoV-2; experiment: microbe, parasite or virus in culture; format: cell-based; settings: for IC50: read-out: IC50 of inhibition of the replication of SARS-CoV-2
[2] = tested on: Vero E6 cells; settings: MTT assay, uninfected Vero E6 cells, same compound dilutions
[3] = tested on: SARS-CoV2 WA-2020 strain; format: cell-based; settings: Vero E6, 40,000 cells/well, MOI 0.01, 72 hours supernatant
[4] = tested on: SARS-CoV2 WA-2020 strain; format: cell-based; settings: Vero E6, 2000 cells/well, MOI 0.05, 72 hours
[5] = tested on: SARS-CoV2 WA-2020 strain; format: cell-based; settings: Vero E6, 40,000 cells/well, MOI 0.01, 72 hours
[6] = Severe acute respiratory syndrome coronavirus 2, Vero C1008, 48 h

## CCN(CCO)CCCC(C)Nc1ccnc2cc(Cl)ccc12 (stereo not drawn) [Hydroxy-Chloroquine]
[1]; [6]
  IC50: 733 nM

## CN1CCN(c2ccc(Nc3ncc4cc(C#N)c(=O)n(C5CCCC5)c4n3)cc2)CC1 [ON123300]
[1]; Vero E6 cells, negative control, data not shown
  effect on viral replication: no effect on viral replication

## CCC(CC)COC(=O)[C@H](C)N[P@](=O)(OC[C@H]1O[C@@](C#N)(c2ccc3c(N)ncnn23)[C@H](O)[C@@H]1O)Oc1ccccc1 [Remdesivir]
[1]; [6]
  IC50: 826 nM

## O=C1Nc2cc(S(=O)(=O)Cc3c(Cl)cccc3Cl)ccc2S/C1=C\c1ccc(O)c([N+](=O)[O-])c1 [compound 108600]
[2]
  effect on the viability of Vero E6 cells: little or no effect
[3]
  infectious titer of released virus (plaque assay): correlated to the infectious titers
[1]; Vero E6 cells, 2,000 cells/well, MOI 0.025, 48 h, percent infected cells (NP immunostain)
  IC50: 13 nM
[1]; Vero E6 cells, relative to Remdesivir
  fold more effective/active than Remdesivir (IC50, SARS-CoV-2 replication): approximately 63 fold
[4]
  release of NP protein / virus from infected cells: inhibited SARS-CoV-2 infection of Vero cells in a dose dependent manner
[5]
  release of NP protein from infected cells into the medium: inhibition was noted only with 10 µM concentration
